Source: patent publication EP4397674A1, “CASPASE-2 INHIBITOR COMPOUNDS” (Kintsugi Therapeutics S.L., priority 2023, dated 2024)
Values joined by “and” are separate entries in the source; they are usually repeats but may differ in a detail not shown here. Equal entries are not always repeated.

Assays:
Type in all cases: biochemical
caspase-3 [1] = target: T1, caspase-3 (Homo sapiens, UniProt P42574); test: Enzymatic kinetic studies, determination of kobs/I inhibition parameter; details: substrate Ac-DEVD-ACC (100uM), 37°C, dot = thousands separator; for kinact/KI: 0.5 h, pH 7.3, pseudo-first-order conditions; for kobs/I: pseudo-first-order conditions
T1 construct: made in house
T1 sequence (P42574 29-175 limits assumed): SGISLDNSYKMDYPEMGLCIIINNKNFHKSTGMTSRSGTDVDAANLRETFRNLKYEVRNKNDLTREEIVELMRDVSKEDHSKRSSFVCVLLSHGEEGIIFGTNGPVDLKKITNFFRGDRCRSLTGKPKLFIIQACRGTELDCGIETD
T1 sequence (P42574 176-277 limits assumed): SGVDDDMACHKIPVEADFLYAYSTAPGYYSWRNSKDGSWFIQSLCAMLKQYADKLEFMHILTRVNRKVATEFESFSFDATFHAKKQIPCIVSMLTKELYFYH
Experimental: (§1) The measurement of kobs/l inhibition parameter (second order rate of enzyme inhibition) of synthesized inhibitors towards caspases-2, -3, and -8 was performed using a fMax spectrofluorimeter (Molecular Devices, Sunnyvale, CA, USA) operating in fluorescence kinetic mode in 96-well Corning (Corning, NY, USA) plates. Before kinetic analysis, all caspases were active site-titrated using the zVAD-fmk inhibitor (Cayman Chemical Company, Cat No. 14467). The caspases assay buffer was 10% w/v sucrose, 1M sodium citrate, 20 mM Pipes, 10 mM NaCl, 1 mM EDTA, and 10 mM DTT (pH = 7.3). Buffers were prepared at room temperature, and all kinetic assays were performed at 37°C. The kobs/l parameter was measured under pseudo-first-order kinetic conditions ([I] » [E]). Inhibitor (20uL) was diluted in a 96-well plate and mixed with the appropriate substrate (20uL); NH-ldc-hGlu-Thr(Bzl)-Ser-Asp-ACC (50uM) for caspase-2, Ac-DEVD-ACC (100uM) for caspase-3 and Ac-LEHD-ACC (100uM) for caspase-8. The ACC fluorescence was monitored using 355 nm (excitation) and 460 nm (emission) wavelengths. The substrate-inhibitor mixture (40uL in total) were pre-incubated at 37C for 15 min. At the same time in a separate tube, the caspase was preincubated in assay buffer at 37C, and after 15 min, the enzyme was added to wells (60uL per well, total reaction volume 100uL) and the fluorescence was monitored for 30min, starting immediately. Second-order rate of inhibition (kobs/l) was determined in at least three independent experiments and presented as an average value. GraphPad Prism 7 software was used for calculations (see figure 2).
(§2) The detailed protocol for the expression and purification of human apoptotic caspases can be found elsewhere (Stennicke, 1999).

caspase-8 [2] = target: T2, caspase-8 (Homo sapiens, UniProt Q14790); test: as above; details: substrate Ac-LEHD-ACC (100uM), 37°C, dot = thousands separator; for kobs/I: pseudo-first-order conditions
T2 construct: made in house
T2 sequence (Q14790 217-374 limits assumed): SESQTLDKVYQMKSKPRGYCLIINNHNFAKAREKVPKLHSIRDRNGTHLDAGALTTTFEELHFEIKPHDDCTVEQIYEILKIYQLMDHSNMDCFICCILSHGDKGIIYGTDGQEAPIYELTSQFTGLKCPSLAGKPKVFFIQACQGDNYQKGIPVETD
T2 sequence (Q14790 385-479 limits assumed): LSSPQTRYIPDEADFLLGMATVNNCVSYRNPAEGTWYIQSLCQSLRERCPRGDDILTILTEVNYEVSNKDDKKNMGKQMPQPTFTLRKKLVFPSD
Experimental: as §1, §2

caspase-2 [3] = target: T3, caspase-2 (Homo sapiens, UniProt P42575); test: as above; set-up: made in house; details: for kobs/I: Caspase-2, pseudo-first-order conditions, substrate NH-ldc-hGlu-Thr(Bzl)-Ser-Asp-ACC (50uM), 37°C, dot = thousands separator
T3 sequence (P42575 170-333 limits assumed): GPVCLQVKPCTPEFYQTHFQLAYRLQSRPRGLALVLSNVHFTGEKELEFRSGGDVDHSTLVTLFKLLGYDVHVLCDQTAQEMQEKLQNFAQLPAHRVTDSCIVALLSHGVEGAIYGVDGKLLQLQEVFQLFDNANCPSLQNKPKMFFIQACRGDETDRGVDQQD
T3 sequence (P42575 348-452 limits assumed): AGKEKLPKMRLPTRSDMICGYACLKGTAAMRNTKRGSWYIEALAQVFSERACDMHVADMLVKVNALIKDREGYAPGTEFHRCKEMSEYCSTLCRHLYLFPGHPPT
Experimental: as §1, §2

caspase-2 [4] = target: T3, caspase-2; test: Kinetic assay of individual fluorogenic substrates NH-Idc-P4-P3-Dab-Asp-ACC (Example 4); details: substrate 10µM, caspase-2 10nM, 37°C; relative to NH-Idc-hGlu-Glu(Chx)-Dab-Asp-ACC
Experimental: Caspase-2 substrates were synthesized according to standard SPPS procedure, purified on HPLC, lyophilized and dissolved in DMSO to the final concentration of 20mM (Poreba et al. 2014, CDD). In particular, the following caspase-2 substrates were synthesized to carry out the present example: [drawing 66] [drawing 67] [drawing 68] [drawing 69] [drawing 70] [drawing 71]
Prior to kinetic assay, substrates (several µL) were diluted in DMSO to the […] (working concentration). Next, 1µL of such substrate was spot into the well of 96-well plate following by the addition of […] of caspase-2 in buffer. Immediately after the enzyme was added, the plate was placed in fluorescence plate reader and the fluorescence was measured over the time in a kinetic mode (excitation 355nm, emission 460nm). The liberation of fluorescence was carried out for 30 minutes, and only linear portion of the plot was taken for analysis to calculate the rate of the reaction. The rate of best cleaved substrate was set to 100% and all other substrates were adjusted accordingly (cleavage rate, %). The final concentration of substrate was 10µM, and the final concentration of caspase-2 was 10nM. The caspase-2 assay buffer was 20mM Pipes, 100mM NaCl, sucrose 10% (w/v), 10mM DTT, pH 7.2-7.4. The caspase-2 was preincubated in buffer at 37°C for 15 min before added to the substrate.

caspase-3 [5] = target: T1, caspase-3; test: P2 substrates screening, rate of substrate hydrolysis (ACC fluorescence); details: substrate 10mM (so in the source), caspase-3 15nM, 37°C, rate per 10nM of caspase
Experimental: (§3) The detailed protocol for the expression and purification of human apoptotic caspases can be found elsewhere (Stennicke, 1999). […] The ACC fluorescence was monitored using 355 nm (excitation) and 460 nm (emission) wavelengths. Before kinetic analysis, all caspases were active site-titrated using the zVAD-fmk inhibitor (Cayman Chemical Company, Cat No. 14467). […] Buffers were prepared at room temperature, and all kinetic assays were performed at 37°C. […] The total volume in a single well was […]. The total assay time was 30 min, but only the linear portion of the fluorescence progress curve was taken for the analysis. The kinetic data were analyzed using Graph Pad Prism software. […]

caspase-8 [6] = target: T2, caspase-8; test: as above; details: substrate 10mM (so in the source), caspase-8 40nM, 37°C, rate per 10nM of caspase
Experimental: as §3

caspase-2 [7] = target: T3, caspase-2; test: as above; set-up: made in house
Experimental: as §3

| Compound | RFU/s, %, average (cleavage rate, best substrate set to 100%) (caspase-2 [4]) | further results |
| --- | --- | --- |
| Cc1cccc(C)c1C(=O)OCC(=O)[C@H](CC(=O)O)NC(=O)[C@H](CCN)NC(=O)[C@@H](NC(=O)[C@H](CCCC(=O)O)NC(=O)[C@@H]1Cc2ccccc2N1)[C@@H](C)OCc1ccccc1 [NH-Idc-hGlu-Thr(Bzl)-Dab-Asp-AOMK] | – | kinact/KI (caspase-3 [1]): 443 M⁻¹ s⁻¹; kinact/KI (caspase-8 [2]; 0.5 h, pH 7.3, pseudo-first-order conditions): 415 M⁻¹ s⁻¹; kobs/I (caspase-2 [3]): 342.000 M⁻¹ s⁻¹ |
| Cc1cccc(C)c1C(=O)OCC(=O)[C@H](CC(=O)O)NC(=O)[C@H](CCCCN)NC(=O)[C@@H](NC(=O)[C@H](CCCC(=O)O)NC(=O)[C@@H]1Cc2ccccc2N1)[C@@H](C)OCc1ccccc1 [NH-Idc-hGlu-Thr(Bzl)-Lys-Asp-AOMK] | – | kobs/I (caspase-3 [1]): 2.570 M⁻¹ s⁻¹; kobs/I (caspase-8 [2]): 9.900 M⁻¹ s⁻¹; kobs/I (caspase-2 [3]): 400.000 M⁻¹ s⁻¹ |
| Cc1cccc(C)c1C(=O)OCC(=O)[C@H](CC(=O)O)NC(=O)[C@H](CCCN)NC(=O)[C@@H](NC(=O)[C@H](CCCC(=O)O)NC(=O)[C@@H]1Cc2ccccc2N1)[C@@H](C)OCc1ccccc1 [NH-Idc-hGlu-Thr(Bzl)-Orn-Asp-AOMK] | – | kinact/KI (caspase-3 [1]): 636 M⁻¹ s⁻¹; kobs/I (caspase-8 [2]): 2.300 M⁻¹ s⁻¹; kobs/I (caspase-2 [3]): 390.000 M⁻¹ s⁻¹ |
| Cc1cccc(C)c1C(=O)OCC(=O)[C@H](CC(=O)O)NC(=O)[C@H](CO)NC(=O)[C@@H](NC(=O)[C@H](CCCC(=O)O)NC(=O)[C@@H]1Cc2ccccc2N1)[C@@H](C)OCc1ccccc1 [NH-Idc-hGlu-Thr(Bzl)-Ser-Asp-AOMK, reference compound] | – | kobs/I (caspase-3 [1]): 21.000 M⁻¹ s⁻¹; kobs/I (caspase-8 [2]): 11.600 M⁻¹ s⁻¹; kobs/I (caspase-2 [3]): 665.000 M⁻¹ s⁻¹ |
| NH-Idc-Asp-Thr(Bzl)-Dab-Asp-ACC | 0,0% | – |
| NH-Idc-Asp-Val-Dab-Asp-ACC | 0,3% | – |
| NH-Idc-Ile-Glu-Dab-Asp-ACC | 0,8% | – |
| NH-Idc-Ile-Thr(Bzl)-Dab-Asp-ACC | 0,0% | – |
| NH-Idc-Leu-Glu(Chx)-Dab-Asp-ACC | 6,9% | – |
| NH-Idc-Leu-Glu-Dab-Asp-ACC | 0,7% | – |
| NH-Idc-Leu-Thr(Bzl)-Dab-Asp-ACC | 0,0% | – |
| NH-Idc-hGlu-Abu-Dab-Asp-ACC | 26,2% | – |
| NH-Idc-hGlu-Glu(Chx)-Dab-Asp-ACC | 100,0% and 91,7% | – |
| NH-Idc-hGlu-Glu(Me)-Dab-Asp-ACC | 76,1% | – |
| NH-Idc-hGlu-Thr(Bzl)-Dap-Asp-AOMK | – | kobs/I (caspase-3 [1]): 8.300 M⁻¹ s⁻¹; kobs/I (caspase-8 [2]): 5.300 M⁻¹ s⁻¹; kobs/I (caspase-2 [3]): 372.000 M⁻¹ s⁻¹; SELECTIVITY Caspase2 vs.Caspase3, C2/C3 kobs/I (caspase-2 [3]; division of kobs/I values, caspase-2/caspase-3): 44.8; SELECTIVITY Caspase2 vs.Caspase8, C2/C8 kobs/I (caspase-2 [3]; division of kobs/I values, caspase-2/caspase-8): 70.2 |
| NH-Idc-hGlu-Val-Dab-Asp-ACC | 5,6% and 6,5% | – |
| NH-Idc-hLeu-Abu-Dab-Asp-ACC | 0,0% | – |
| NH-Idc-hLeu-Glu(Chx)-Dab-Asp-ACC | 0,7% | – |
| NH-Idc-hLeu-Glu-Dab-Asp-ACC | 0,0% | – |
| NH-ldc-hGlu-Thr(Bzl)-Ser-Asp-ACC | – | rate of substrate hydrolysis, Caspase-3 (caspase-3 [5]): 4,75 RFU/s/10nM; rate of substrate hydrolysis, Caspase-8 (caspase-8 [6]): 6,57 RFU/s/10nM; Casp-2 vs Casp-3 (caspase-2 [7]; ratio of hydrolysis rates caspase-2/caspase-3): 38,49; Casp-2 vs Casp-8 (caspase-2 [7]; ratio of hydrolysis rates caspase-2/caspase-8): 27,82; rate of substrate hydrolysis, Caspase-2 (caspase-2 [7]; substrate 10mM (so in the source), caspase-2 5nM, 37°C, rate per 10nM of caspase): 182,81 RFU/s/10nM |

The next lines start with results.

| RFU/s, %, average (cleavage rate, best substrate set to 100%) (caspase-2 [4]) | Compound | further results |
| --- | --- | --- |
| 0,0% | NH-Idc-Asp-Abu-Dab-Asp-ACC | – |
| 0,2% | NH-Idc-Asp-Glu(Chx)-Dab-Asp-ACC | – |
| 0,2% | NH-Idc-Asp-Glu-Dab-Asp-ACC | – |
| 0,0% | NH-Idc-Ile-Abu-Dab-Asp-ACC | – |
| 6,3% | NH-Idc-Ile-Glu(Chx)-Dab-Asp-ACC | – |
| 0,0% | NH-Idc-Ile-Val-Dab-Asp-ACC | – |
| 0,0% | NH-Idc-Leu-Abu-Dab-Asp-ACC | – |
| 0,0% | NH-Idc-Leu-Val-Dab-Asp-ACC | – |
| 75,2% and 72,5% | NH-Idc-hGlu-Glu-Dab-Asp-ACC | – |
| 5,9% and 4,6% | NH-Idc-hGlu-Thr(Bzl)-Dab-Asp-ACC | – |
| 0,0% | NH-Idc-hLeu-Thr(Bzl)-Dab-Asp-ACC | – |
| 0,0% | NH-Idc-hLeu-Val-Dab-Asp-ACC | – |
